Source: ChEMBL document CHEMBL1201862, “PubChem BioAssay data set” (2004)
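A five-concentration, 48-hour dose response in 96-well plates underlies each endpoint, interpolated linearly between surrounding concentrations. GI50 is the concentration that inhibits growth by half.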 Calls of active or inactive are those of the source. Cut-off read from the data, not from the text of the source: active = GI50 up to about 1.1 µM and inactive = higher.

What was measured:
Test in all cases: growth of human tumour cells (NCI), 48 h
786-0 = system: 786-0
A549 = system: A549
CCRF-CEM = system: CCRF-CEM
HOP-62 = system: HOP-62
HT-29 = system: HT-29
M14 = system: M14
NCI-H23 = system: NCI-H23
OVCAR-5 = system: OVCAR-5
RXF 393 = system: RXF 393
SF-268 = system: SF-268
SF-295 = system: SF-295
SK-MEL-28 = system: SK-MEL-28
SK-MEL-5 = system: SK-MEL-5
SW-620 = system: SW-620
T47D = system: T47D
U-251 = system: U-251
UACC-62 = system: UACC-62
MDA-MB-435 = system: MDA-MB-435
RPMI-8226 = system: RPMI-8226
A498 = system: A498

Measured: GI50

C=C(C)C1Cc2c(cc(OC)c3c(=O)c4cccc(O)c4oc23)O1 (centres undefined)
inactive: 786-0 18.9 µM | A549 31.8 µM | CCRF-CEM 74.6 µM | HOP-62 18.6 µM | HT-29 67.1 µM | M14 24.1 µM | NCI-H23 26 µM | OVCAR-5 72.9 µM | RXF 393 19.4 µM | SF-268 20.4 µM | SF-295 17.3 µM | SK-MEL-28 25.5 µM | SK-MEL-5 16.5 µM | SW-620 53.1 µM | T47D 16.6 µM | U-251 16.8 µM | UACC-62 18 µM

Cn1c(=O)cc(N2CCCC2)[nH]c1=O
inactive: 786-0 > 100 µM | A549 > 100 µM | CCRF-CEM > 100 µM | HOP-62 > 100 µM | HT-29 > 100 µM | M14 > 100 µM | MDA-MB-435 > 100 µM | NCI-H23 > 100 µM | OVCAR-5 > 100 µM | RPMI-8226 > 100 µM | SF-268 74.1 µM | SF-295 > 100 µM | SK-MEL-28 > 100 µM | SK-MEL-5 > 100 µM | SW-620 > 100 µM | U-251 > 100 µM

CC(=O)ONC(C(=O)C(C)(C)C)C(=O)C(C)(C)C
inactive: 786-0 > 100 µM | A498 > 100 µM | A549 > 100 µM | CCRF-CEM > 100 µM | HOP-62 > 100 µM | HT-29 > 100 µM | M14 > 100 µM | NCI-H23 > 100 µM | OVCAR-5 > 100 µM | RPMI-8226 > 100 µM | RXF 393 > 100 µM | SF-268 > 100 µM | SF-295 > 100 µM | SK-MEL-28 > 100 µM | SK-MEL-5 > 100 µM | SW-620 > 100 µM | T47D > 100 µM | U-251 > 100 µM

COc1ccc2[nH]cc(CCNC(C)=O)c2c1 [MELATONIN]
inactive: 786-0 88.5 µM | A498 > 100 µM | A549 > 100 µM | CCRF-CEM > 100 µM | HOP-62 > 100 µM | HT-29 69 µM | M14 > 100 µM | NCI-H23 > 100 µM | OVCAR-5 > 100 µM | RPMI-8226 22.1 µM | RXF 393 > 100 µM | SF-268 > 100 µM | SF-295 > 100 µM | SK-MEL-28 > 100 µM | SK-MEL-5 > 100 µM | SW-620 8.17 µM | U-251 > 100 µM | UACC-62 > 100 µM

CCCc1c(O)nc2ccccc2c1O
inactive: 786-0 > 100 µM | A498 > 100 µM | A549 > 100 µM | CCRF-CEM > 100 µM | HOP-62 > 100 µM | HT-29 > 100 µM | MDA-MB-435 > 100 µM | NCI-H23 > 100 µM | OVCAR-5 > 100 µM | RPMI-8226 > 100 µM | SF-295 > 100 µM | SK-MEL-28 > 100 µM | SK-MEL-5 > 100 µM | SW-620 > 100 µM | U-251 > 100 µM

COc1cccc(-c2cc(O)c3ccccc3n2)c1
inactive: 786-0 5.25 µM | A498 11.4 µM | A549 6.92 µM | CCRF-CEM 4.56 µM | HOP-62 8.18 µM | HT-29 3.82 µM | M14 4.82 µM | NCI-H23 7.52 µM | OVCAR-5 7.43 µM | RPMI-8226 5.45 µM | RXF 393 2.79 µM | SF-268 10.3 µM | SF-295 2.81 µM | SK-MEL-28 > 100 µM | SK-MEL-5 4.48 µM | SW-620 3.28 µM | U-251 9.53 µM | UACC-62 4.06 µM

COc1ccc2c(c1)-c1[nH]c3ccc(OC)cc3c1CC2
inactive: 786-0 17.5 µM | A549 14.3 µM | CCRF-CEM 14.3 µM | HOP-62 16.3 µM | HT-29 12.3 µM | M14 15 µM | MDA-MB-435 17.4 µM | NCI-H23 12.9 µM | OVCAR-5 14.5 µM | RPMI-8226 15.6 µM | SF-268 14.1 µM | SF-295 13.1 µM | SK-MEL-28 16.4 µM | SK-MEL-5 13.1 µM | SW-620 22.4 µM | T47D 8.05 µM | U-251 17.3 µM | UACC-62 15.1 µM

CCC(C)[C@H](NC(=O)N[C@H](C)c1ccccc1)C(=O)OC (some centres undefined)
inactive: 786-0 > 100 µM | A498 > 100 µM | A549 > 100 µM | CCRF-CEM > 100 µM | HOP-62 > 100 µM | HT-29 > 100 µM | M14 > 100 µM | MDA-MB-435 > 100 µM | NCI-H23 > 100 µM | OVCAR-5 > 100 µM | RPMI-8226 > 100 µM | SF-295 > 100 µM | SK-MEL-28 > 100 µM | SK-MEL-5 > 100 µM | SW-620 > 100 µM | U-251 > 100 µM | UACC-62 > 100 µM

Cc1[nH]c2ccccc2c1C1=NO/C(=N\O)C(c2c(C)[nH]c3ccccc23)C1 (centres undefined)
inactive: 786-0 40.7 µM | A498 42.8 µM | A549 38.6 µM | CCRF-CEM 31.4 µM | HOP-62 21.7 µM | HT-29 22.7 µM | M14 26.6 µM | NCI-H23 62.1 µM | OVCAR-5 50 µM | RPMI-8226 34.5 µM | RXF 393 23.3 µM | SF-268 46 µM | SF-295 36.7 µM | SK-MEL-28 52.5 µM | SK-MEL-5 19.9 µM | SW-620 57.5 µM | U-251 42.9 µM | UACC-62 19.9 µM

CS(=O)(=O)c1nc(-c2cc3c(c(S(C)(=O)=O)n2)CCC3)cc2c1CCC2
inactive: 786-0 82.6 µM | A498 > 100 µM | A549 > 100 µM | CCRF-CEM > 100 µM | HOP-62 > 100 µM | HT-29 > 100 µM | M14 > 100 µM | MDA-MB-435 > 100 µM | NCI-H23 > 100 µM | OVCAR-5 > 100 µM | RPMI-8226 > 100 µM | RXF 393 33.7 µM | SF-268 44.3 µM | SF-295 > 100 µM | SK-MEL-28 > 100 µM | SK-MEL-5 > 100 µM | SW-620 > 100 µM | U-251 47.3 µM | UACC-62 > 100 µM

O=c1[nH]nc(Nc2ccc(Cl)cc2)c2nnn(-c3ccc([N+](=O)[O-])cc3)c12
inactive: 786-0 17.1 µM | A549 14.5 µM | CCRF-CEM 7.98 µM | HOP-62 27.4 µM | HT-29 25.4 µM | M14 49.4 µM | MDA-MB-435 30.1 µM | NCI-H23 8.59 µM | OVCAR-5 > 100 µM | RPMI-8226 10.7 µM | SF-268 24.3 µM | SF-295 25.3 µM | SK-MEL-5 10.8 µM | SW-620 30.9 µM | U-251 14.2 µM
